The record followed here is US9730447B2, “Fungicidal amides” (E I DU PONT DE NEMOURS AND COMPANY, priority 2013, dated 2017).

Marks after values point to notes of the source that are not given here.

Holding throughout (type): in vivo
Assay [1] relates to Puccinia recondite f. sp. tritici. Nature of the assay: Test D: preventive spray on wheat seedlings, Puccinia recondite f. sp. tritici (wheat leaf rust), visual disease rating. The text has this:
(§1) General protocol for preparing test suspensions for Tests A-E: the test compounds were first dissolved in acetone in an amount equal to 3% of the final volume and then suspended at the desired concentration (in ppm) in acetone and purified water (50/50 mix by volume) containing 250 ppm of the surfactant Trem® 014 (polyhydric alcohol esters). The resulting test suspensions were then used in Tests A-E. Compounds were sprayed with either a 40 ppm or 10 ppm (*) test suspension to the point of run-off on the test plants which is the equivalent of a rate of 160 g ai/ha or 40 g ai/ha, respectively.
The test suspension was sprayed to the point of run-off on wheat seedlings. The following day the seedlings were inoculated with a spore suspension of Puccinia recondite f. sp. tritici; (the causal agent of wheat leaf rust) and incubated in a saturated atmosphere at 20° C. for 24 h, and then moved to a growth chamber at 20° C. for 6 days, after which time visual disease ratings were made.
(§2) Results for Tests A-E are given in Table A. In the Table, a rating of 100 indicates 100% disease control and a rating of 0 indicates no disease control (relative to the controls). A dash (-) indicates no test results.

Assay [2] has as its system Erysiphe graminis f. sp. tritici. Kind of assay: Test E: preventive spray on wheat seedlings, Erysiphe graminis f. sp. tritici (wheat powdery mildew), visual disease rating.
Description: as §1
The test suspension was sprayed to the point of run-off on wheat seedlings. The following day the seedlings were inoculated with a spore dust of Erysiphe graminis f. sp. tritici, (the causal agent of wheat powdery mildew) and incubated in a growth chamber at 20° C. for 8 days, after which time visual disease ratings were made.
as §2

Assay [3] relates to Septoria tritici. Nature of the assay: Test C: preventive spray on wheat seedlings, Septoria tritici (wheat leaf blotch), visual disease rating.
Description: as §1
The test suspension was sprayed to the point of run-off on wheat seedlings. The following day the seedlings were inoculated with a spore suspension of Septoria tritici (the causal agent of wheat leaf blotch) and incubated in a saturated atmosphere at 24° C. for 48 h, and then moved to a growth chamber at 20° C. for 21 days, after which time visual disease ratings were made.
as §2

Setting [4] is: 100 = 100% disease control, 0 = no control, unmarked values.
The mark [5] stands for this setting: values marked with asterisk (*), meaning not given.

Take `O=C(NCCc1ncc(-n2ccc(C(F)(F)F)n2)cn1)c1ccccc1C(F)(F)F` [Compound 177]: in assay [1] (setting [4]), the “Test D disease control rating” value came to 0%. Also, the “Test E disease control rating” value in assay [2] (setting [4]) amounted to 79%. For the same compound, the “Test C disease control rating” value in assay [3] (setting [4]) came out at 91%.

In the case of `N#Cc1cc(-c2ccccc2NC(=O)c2ncccc2C(F)(F)F)cnc1-n1ccc(C(F)(F)F)n1` [compound 105], the “Test D disease control rating” value in assay [1] (setting [4]) turned out to be 100%. Besides, the “Test E disease control rating” value in assay [2] (setting [4]) turned out to be 81%.

For `Cn1cc(C(=O)Nc2ccccc2-c2cnc(-n3ccc(C(F)(F)F)n3)c(C#N)c2)c(C(F)F)n1` [compound 106], the “Test D disease control rating” value in assay [1] (setting [4]) is 100%. Also, the “Test E disease control rating” value in assay [2] (setting [4]) was found to be 98%.

Consider `Cc1nc(C(F)(F)F)c(C(=O)Nc2ccccc2-c2cnc(-n3ccc(C(F)(F)F)n3)c(C#N)c2)s1` [compound 107], for which, in assay [1] (setting [4]), the “Test D disease control rating” value is listed as 99%. In assay [2] (setting [4]), the “Test E disease control rating” value is listed as 43%.

For the compound `N#Cc1cc(-c2ccccc2NC(=O)c2nccnc2Cl)cnc1-n1ccc(C(F)(F)F)n1` [compound 108], the “Test D disease control rating” value in assay [1] (setting [4]) was 96%. Besides, in assay [2] (setting [4]), the “Test E disease control rating” value was determined as 87%.

Regarding `CCOC(=O)C1(C)CC(c2ccc(-c3ccccc3NC(=O)c3cn(C)nc3C(F)F)cn2)=NO1` (centres unmarked) [compound 109], in assay [1] (setting [4]), the “Test D disease control rating” value was 74%. Further, the “Test E disease control rating” value in assay [2] (setting [4]) is 0%. Besides, the “Test C disease control rating” value in assay [3] (setting [4]) was found to be 66%.

On to `CCOC(=O)C1CC(c2ccc(-c3ccccc3NC(=O)c3cn(C)nc3C(F)F)cn2)=NO1` (centres unmarked) [compound 110], for which the “Test D disease control rating” value in assay [1] (setting [4]) came out at 68%. In addition, in assay [2] (setting [4]), the “Test E disease control rating” value is on record as 0%. Also, in assay [3] (setting [4]), the “Test C disease control rating” value is recorded as 22%.

`O=C(Nc1ccccc1-c1cnc(-n2ccc(C(F)(F)F)n2)c(Cl)c1)c1cccs1` [compound 111]: in assay [1] (setting [5]), the “Test D disease control rating” value was 84* %. The “Test E disease control rating” value in assay [2] (setting [5]) is listed as 0* %. The “Test C disease control rating” value in assay [3] (setting [5]) was 63* %.

For `O=C(Nc1ccccc1-c1cnc(-n2ccc(C(F)(F)F)n2)c(Cl)c1)c1ccsc1` [compound 112], in assay [1] (setting [5]), the “Test D disease control rating” value was 0* %. The “Test E disease control rating” value in assay [2] (setting [5]) was 0* %. Besides, in assay [3] (setting [5]), the “Test C disease control rating” value is on record as 77* %.

As to `Cc1cc(C)c(C(=O)Nc2ccccc2-c2cnc(-n3ccc(C(F)(F)F)n3)c(Cl)c2)s1` [compound 116], the “Test D disease control rating” value in assay [1] (setting [5]) is reported as 99* %. Further, the “Test E disease control rating” value in assay [2] (setting [5]) is recorded as 64* %. For the same compound, the “Test C disease control rating” value in assay [3] (setting [5]) is 99* %.

Consider `O=C(Nc1ccccc1-c1cnc(-n2ccc(C(F)(F)F)n2)c(Cl)c1)c1occc1Br` [compound 117], for which the “Test D disease control rating” value in assay [1] (setting [5]) is reported as 99* %. In addition, in assay [2] (setting [5]), the “Test E disease control rating” value is listed as 64* %. Besides, the “Test C disease control rating” value in assay [3] (setting [5]) is reported as 99* %.

Regarding `Cc1occc1C(=O)Nc1ccccc1-c1cnc(-n2ccc(C(F)(F)F)n2)c(Cl)c1` [compound 118], the “Test D disease control rating” value in assay [1] (setting [5]) was 68* %. Further, the “Test E disease control rating” value in assay [2] (setting [5]) is reported as 0* %. Besides, in assay [3] (setting [5]), the “Test C disease control rating” value was 42* %.

For `O=C(Nc1ccccc1-c1cnc(-n2ccc(C(F)(F)F)n2)c(Cl)c1)c1ccsc1Cl` [compound 120], the “Test D disease control rating” value in assay [1] (setting [5]) was 100* %. In addition, the “Test E disease control rating” value in assay [2] (setting [5]) is 0* %. In addition, the “Test C disease control rating” value in assay [3] (setting [5]) was 98* %.

Regarding `Cc1oncc1C(=O)Nc1ccccc1-c1cnc(-n2ccc(C(F)(F)F)n2)c(Cl)c1` [compound 128], the “Test D disease control rating” value in assay [1] (setting [5]) is listed as 67* %. Besides, the “Test E disease control rating” value in assay [2] (setting [5]) is listed as 13* %. Besides, the “Test C disease control rating” value in assay [3] (setting [5]) was 42* %.

Regarding `Cn1ncnc1C(=O)Nc1ccccc1-c1cnc(-n2ccc(C(F)(F)F)n2)c(Cl)c1` [compound 129], the “Test D disease control rating” value in assay [1] (setting [5]) was 17* %. The “Test E disease control rating” value in assay [2] (setting [5]) was 0* %. For the same compound, in assay [3] (setting [5]), the “Test C disease control rating” value is listed as 88* %.

As for `Cc1sccc1C(=O)Nc1ccccc1-c1cnc(-n2ccc(C(F)(F)F)n2)c(Cl)c1` [compound 138], in assay [1] (setting [5]), the “Test D disease control rating” value is 100* %. For the same compound, in assay [2] (setting [5]), the “Test E disease control rating” value is 64* %. Further, the “Test C disease control rating” value in assay [3] (setting [5]) is reported as 99* %.
